Experimental data reported in PubChem BioAssay (NCI).
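These data come from cells grown in 96-well plates and exposed to compound for 48 hours at five concentrations. Definition used: TGI = concentration required for complete inhibition of growth.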

Tests used:
Assay in all cases: growth of human tumour cells (NCI), 48 h
CAKI-1 renal = tested on: CAKI-1 renal
HCC-2998 colon = tested on: HCC-2998 colon
K-562 leukemia = tested on: K-562 leukemia
LOX IMVI melanoma = tested on: LOX IMVI melanoma
MALME-3M melanoma = tested on: MALME-3M melanoma
MDA-MB-435 = tested on: MDA-MB-435
NCI-H460 lung = tested on: NCI-H460 lung
NCI/ADR-RES ovarian = tested on: NCI/ADR-RES ovarian
OVCAR-8 ovarian = tested on: OVCAR-8 ovarian
PC-3 prostate = tested on: PC-3 prostate
RPMI-8226 leukemia = tested on: RPMI-8226 leukemia
SF-539 CNS = tested on: SF-539 CNS
SK-MEL-2 melanoma = tested on: SK-MEL-2 melanoma
SK-OV-3 ovarian = tested on: SK-OV-3 ovarian
SNB-75 CNS = tested on: SNB-75 CNS
T-47D breast = tested on: T-47D breast
HL-60(TB) leukemia = tested on: HL-60(TB) leukemia
HOP-92 NSCLC = tested on: HOP-92 NSCLC
HS 578T breast = tested on: HS 578T breast

Measured: TGI

O/C(=C\c1nc2ccccc2nc1/C=C(\O)c1ccc(Cl)cc1)c1ccccc1
72.8 µM: SNB-75 CNS
> 100 µM: HCC-2998 colon | K-562 leukemia | LOX IMVI melanoma | MALME-3M melanoma | MDA-MB-435 | NCI-H460 lung | NCI/ADR-RES ovarian | OVCAR-8 ovarian | PC-3 prostate | RPMI-8226 leukemia | SF-539 CNS | SK-MEL-2 melanoma | SK-OV-3 ovarian | T-47D breast
65.4 µM: CAKI-1 renal

O=C(CC(C(=O)c1ccco1)c1ccsc1)c1ccco1 (stereo not given)
> 100 µM: CAKI-1 renal | HCC-2998 colon | HL-60(TB) leukemia | HOP-92 NSCLC | HS 578T breast | K-562 leukemia | LOX IMVI melanoma | MDA-MB-435 | NCI-H460 lung | NCI/ADR-RES ovarian | OVCAR-8 ovarian | RPMI-8226 leukemia | SF-539 CNS | SK-OV-3 ovarian | SNB-75 CNS | T-47D breast

N=C(c1ccc2ccccc2c1)c1ccccc1Cc1ccccc1
80.7 µM: MDA-MB-435
55.1 µM: HL-60(TB) leukemia
55.7 µM: T-47D breast
49.6 µM: SK-MEL-2 melanoma
> 100 µM: CAKI-1 renal | HCC-2998 colon | HOP-92 NSCLC | K-562 leukemia | LOX IMVI melanoma | NCI-H460 lung | NCI/ADR-RES ovarian | OVCAR-8 ovarian | PC-3 prostate | RPMI-8226 leukemia | SF-539 CNS | SK-OV-3 ovarian

COc1cc(/C=C(\C#N)C(=O)c2ccccc2)ccc1O
> 100 µM: CAKI-1 renal | HCC-2998 colon | HL-60(TB) leukemia | K-562 leukemia | LOX IMVI melanoma | MALME-3M melanoma | NCI-H460 lung | OVCAR-8 ovarian | RPMI-8226 leukemia | SF-539 CNS | SK-MEL-2 melanoma | SK-OV-3 ovarian

Cn1nc2ccc3nccc(N4CCN(CCO)CC4)c3c2n1
> 100 µM: HCC-2998 colon | HS 578T breast | K-562 leukemia | MALME-3M melanoma | MDA-MB-435 | NCI-H460 lung | OVCAR-8 ovarian | PC-3 prostate | SK-MEL-2 melanoma | SK-OV-3 ovarian | SNB-75 CNS | T-47D breast

CCCCc1c2c(nc3c1CCCC3O)CCCC2 (stereo not given)
> 100 µM: CAKI-1 renal | HCC-2998 colon | HL-60(TB) leukemia | HOP-92 NSCLC | HS 578T breast | K-562 leukemia | MALME-3M melanoma | MDA-MB-435 | NCI-H460 lung | NCI/ADR-RES ovarian | OVCAR-8 ovarian | PC-3 prostate | RPMI-8226 leukemia | SF-539 CNS | SK-MEL-2 melanoma | SK-OV-3 ovarian | SNB-75 CNS

Cc1ccc2c(=O)c3cccc(CC(=O)O)c3[nH]c2c1C
> 100 µM: CAKI-1 renal | HL-60(TB) leukemia | HOP-92 NSCLC | HS 578T breast | K-562 leukemia | LOX IMVI melanoma | MALME-3M melanoma | MDA-MB-435 | NCI-H460 lung | NCI/ADR-RES ovarian | OVCAR-8 ovarian | PC-3 prostate | RPMI-8226 leukemia | SF-539 CNS | SK-OV-3 ovarian

N#Cc1c(O)c(N=Nc2ccccc2F)c(=O)n2c1[nH]c1ccccc12
57 µM: SK-MEL-2 melanoma
60.3 µM: HOP-92 NSCLC
> 100 µM: HCC-2998 colon | HL-60(TB) leukemia | K-562 leukemia | LOX IMVI melanoma | MALME-3M melanoma | MDA-MB-435 | NCI-H460 lung | NCI/ADR-RES ovarian | OVCAR-8 ovarian | PC-3 prostate | SF-539 CNS | SK-OV-3 ovarian | SNB-75 CNS
65.4 µM: HS 578T breast

Cc1ccc2ccccc2c1NC1=NCCO1
46.8 µM: HOP-92 NSCLC
> 100 µM: HCC-2998 colon | HL-60(TB) leukemia | HS 578T breast | K-562 leukemia | MALME-3M melanoma | MDA-MB-435 | NCI-H460 lung | NCI/ADR-RES ovarian | OVCAR-8 ovarian | RPMI-8226 leukemia | SF-539 CNS | SK-OV-3 ovarian | SNB-75 CNS | T-47D breast

FC(F)(Sc1ccccn1)c1nc2ccccc2o1
> 100 µM: CAKI-1 renal | HCC-2998 colon | HOP-92 NSCLC | K-562 leukemia | MALME-3M melanoma | MDA-MB-435 | NCI-H460 lung | NCI/ADR-RES ovarian | OVCAR-8 ovarian | PC-3 prostate | RPMI-8226 leukemia | SF-539 CNS | SK-MEL-2 melanoma | SK-OV-3 ovarian | T-47D breast

COC(=O)c1sc2ncc3c(c2c1N)CCCCCC3
> 100 µM: CAKI-1 renal | HCC-2998 colon | HOP-92 NSCLC | K-562 leukemia | LOX IMVI melanoma | MALME-3M melanoma | MDA-MB-435 | NCI-H460 lung | NCI/ADR-RES ovarian | OVCAR-8 ovarian | PC-3 prostate | RPMI-8226 leukemia | SF-539 CNS | SK-MEL-2 melanoma | SK-OV-3 ovarian | SNB-75 CNS | T-47D breast

CC(C)(C)c1cc(-c2cc(C(C)(C)C)n(-c3ccccc3)n2)nn1-c1ccccc1
> 100 µM: CAKI-1 renal | HCC-2998 colon | HL-60(TB) leukemia | HOP-92 NSCLC | K-562 leukemia | LOX IMVI melanoma | MDA-MB-435 | NCI-H460 lung | NCI/ADR-RES ovarian | OVCAR-8 ovarian | PC-3 prostate | RPMI-8226 leukemia | SF-539 CNS | SK-MEL-2 melanoma | SK-OV-3 ovarian | SNB-75 CNS | T-47D breast

O=C(NC(CS)C(=O)O)c1cccc2c(=O)c3ccccc3[nH]c12 (stereo not given)
> 100 µM: HL-60(TB) leukemia | HOP-92 NSCLC | HS 578T breast | K-562 leukemia | LOX IMVI melanoma | MALME-3M melanoma | MDA-MB-435 | NCI/ADR-RES ovarian | OVCAR-8 ovarian | PC-3 prostate | RPMI-8226 leukemia | SK-MEL-2 melanoma | SK-OV-3 ovarian | SNB-75 CNS

CC(C)(C)c1cc(C(C)(C)C)c(SS(=O)(=O)O)c(O)c1O
94.5 µM: SK-MEL-2 melanoma
99.1 µM: SNB-75 CNS
37.4 µM: SF-539 CNS
> 100 µM: CAKI-1 renal | HL-60(TB) leukemia | HOP-92 NSCLC | K-562 leukemia | LOX IMVI melanoma | MALME-3M melanoma | MDA-MB-435 | NCI-H460 lung | NCI/ADR-RES ovarian | OVCAR-8 ovarian | PC-3 prostate | RPMI-8226 leukemia | SK-OV-3 ovarian | T-47D breast
